Molecules are shown by their SMILES.

The results in this text go back to patent publication US8207221B2, “Crystalline polymorphs of a CXC-chemokine receptor ligand” (Schering Corporation, priority 2004, dated 2012).

For the experiment, the system named is CXC-chemokine receptor. The experiment can be described thus: activity as a CXC-chemokine receptor ligand. The settings on record: qualitative statement, no method or figures given.

Consider `CC[C@@H](Nc1c(Nc2cccc(C(=O)N(C)C)c2O)c(=O)c1=O)c1ccc(C)o1` [Anhydrous Compound A], for which the “activity as a CXC-chemokine receptor ligand” value is “particularly active”.

As for `CC[C@@H](Nc1c(Nc2cccc(C(=O)N(C)C)c2O)c(=O)c1=O)c1ccc(C)o1` [monohydrate form of Compound A], the “activity as a CXC-chemokine receptor ligand” value is “substantially similar activity”.
